Measured values: patent US20180002320A1, “USE OF MACROCYCLIC PICOLINAMIDES AS FUNGICIDES” (DOW AGROSCIENCES LLC, priority 2014, published 2018)
Where two headings read alike, the source gives them in different places.

Experiments:
Puccinia triticina = experiment: Wheat Brown Rust (PUCCRT) fungicidal activity; assay type: in vivo; conditions: Low Volume (121.5 g/H)
Procedure: Technical grades of materials were dissolved in acetone, which were then mixed with nine volumes of H2O containing 110 ppm Triton X-100. The fungicide solutions were applied onto wheat seedlings using an automated booth sprayer to run-off. All sprayed plants were allowed to air dry prior to further handling. All fungicides were evaluated using the aforementioned method for their activity vs. all target diseases, unless stated otherwise. Wheat leaf blotch and brown rust activity were also evaluated using track spray applications, in which case the fungicides were formulated as EC formulations, containing 0.1% Trycol 5941 in the spray solutions. Wheat plants (variety Yuma) were grown from seed in a greenhouse in 50% mineral soil/50% soil-less Metro mix until the first leaf was fully emerged, with 7-10 seedlings per pot. These plants were inoculated with an aqueous spore suspension of Puccinia triticina either prior to or after fungicide treatments. After inoculation the plants were kept in a dark dew room at 22° C. with 100% relative humidity overnight to permit spores to germinate and infect the leaf. The plants were then transferred to a greenhouse set at 24° C. for disease to develop. Fungicide formulation, application and disease assessment followed the procedures as described in the Example A.

Zymoseptoria tritici = experiment: Leaf Blotch of Wheat (SEPTTR) fungicidal activity; assay type: in vivo; conditions: Low Volume (121.5 g/H)
Procedure: Technical grades of materials were dissolved in acetone, which were then mixed with nine volumes of H2O containing 110 ppm Triton X-100. The fungicide solutions were applied onto wheat seedlings using an automated booth sprayer to run-off. All sprayed plants were allowed to air dry prior to further handling. All fungicides were evaluated using the aforementioned method for their activity vs. all target diseases, unless stated otherwise. Wheat leaf blotch and brown rust activity were also evaluated using track spray applications, in which case the fungicides were formulated as EC formulations, containing 0.1% Trycol 5941 in the spray solutions. Wheat plants (variety Yuma) were grown from seed in a greenhouse in 50% mineral soil/50% soil-less Metro mix until the first leaf was fully emerged, with 7-10 seedlings per pot. These plants were inoculated with an aqueous spore suspension of Zymoseptoria tritici either prior to or after fungicide treatments. After inoculation the plants were kept in 100% relative humidity (one day in a dark dew chamber followed by two to three days in a lighted dew chamber at 20° C.) to permit spores to germinate and infect the leaf. The plants were then transferred to a greenhouse set at 20° C. for disease to develop. When disease symptoms were fully expressed on the 1st leaves of untreated plants, infection levels were assessed on a scale of 0 to 100 percent disease severity. Percent disease control was calculated using the ratio of disease severity on treated plants relative to untreated plants.

[1] = 24 h, 1 Day Protectant, read-out: PUCCRT 1DP disease control
[2] = 72 h, 3 Day Curative, read-out: PUCCRT 3DC disease control
[3] = 24 h, 1 Day Protectant, read-out: SEPTTR 1DP disease control
[4] = 72 h, 3 Day Curative, read-out: SEPTTR 3DC disease control

SMILES | pest or weed control at 121.5 g/ha (Puccinia triticina; [1]) [%] | pest or weed control at 121.5 g/ha (Puccinia triticina; [2]) [%] | pest or weed control at 121.5 g/ha (Zymoseptoria tritici; [3]) [%] | pest or weed control at 121.5 g/ha (Zymoseptoria tritici; [4]) [%]
COc1ccnc(C(=O)N[C@H]2CCOC[C@H](Oc3ccccc3)[C@@H](Oc3ccccc3)[C@H](C)OC2=O)c1OCOC(C)=O [Compound 37] | > 80 | > 80 | > 80 | > 80
CCCOC(=O)O[C@H]1CCCC[C@H](NC(=O)c2nccc(OC)c2OCOC(C)=O)C(=O)O[C@@H](C)[C@@H]1OCC(C)C [Compound 38] | > 80 | < 80 | > 80 | > 80
COc1ccnc(C(=O)N[C@H]2CCOC[C@H](OC)[C@@H](Oc3ccccc3)[C@H](C)OC2=O)c1OCOC(C)=O [Compound 40] | > 80 | > 80 | > 80 | > 80
CCCO[C@H]1COCC[C@H](NC(=O)c2nccc(OC)c2OCOC(C)=O)C(=O)O[C@@H](C)[C@@H]1Oc1ccccc1 [Compound 41] | > 80 | > 80 | > 80 | > 80
CCCO[C@H]1[C@H](C)OC(=O)[C@@H](NC(=O)c2nccc(OC)c2OCOC(C)=O)CCOC[C@@H]1Oc1ccccc1 [Compound 42] | > 80 | < 80 | < 80 | < 80
COc1ccnc(C(=O)N[C@H]2CCOC[C@H](OC(=O)C(C)C)[C@@H](Oc3ccccc3)[C@H](C)OC2=O)c1OCOC(C)=O [Compound 44] | > 80 | > 80 | < 80 | < 80
COc1ccnc(C(=O)N[C@H]2CCOC[C@H](OCC(C)C)[C@@H](Oc3ccccc3)[C@H](C)OC2=O)c1OCOC(C)=O [Compound 45] | > 80 | > 80 | > 80 | > 80
COc1ccnc(C(=O)N[C@H]2CCOC[C@H](Oc3ccccc3)[C@@H](OCC(C)C)[C@H](C)OC2=O)c1OCOC(C)=O [Compound 46] | > 80 | < 80 | > 80 | < 80
COc1ccnc(C(=O)N[C@H]2CCOC[C@H](Oc3ccccc3)[C@@H](Oc3ccccc3)[C@H](C)OC2=O)c1OC(C)=O [Compound 47] | > 80 | > 80 | > 80 | > 80
COc1ccnc(C(=O)N[C@H]2CCOC[C@H](OC)[C@@H](Oc3ccccc3)[C@H](C)OC2=O)c1OC(C)=O [Compound 48] | > 80 | > 80 | > 80 | > 80
CC(=O)OCOc1cccnc1C(=O)N[C@H]1CCCC[C@H](CC2CCCC2)[C@@H](Oc2ccccc2)[C@H](C)OC1=O [Compound 49] | > 80 | < 80 | < 80 | 
COc1ccnc(C(=O)N[C@H]2CCCC[C@H](CC3CCCC3)[C@@H](Oc3ccccc3)[C@H](C)OC2=O)c1OCOC(C)=O [Compound 50] | > 80 | > 80 | > 80 | < 80
CCOCC(=O)OCOc1c(OC)ccnc1C(=O)N[C@H]1CCCC[C@H](CC2CCCC2)[C@@H](Oc2ccccc2)[C@H](C)OC1=O [Compound 51, ((2-(((3S,8R,9R,10S)-8-(cyclopentylmethyl)-10-methyl-2-oxo-9-phenoxyoxecan-3-yl)carbamoyl)-4-methoxypyridin-3-yl)oxy)methyl 2-ethoxyacetate] | > 80 | < 80 | > 80 | 
